Results: patent publication US20060035873A1, “Methods for inducing apolipoprotein e secretion” (priority 2000, published 2006)
Read-outs that look alike come from different tables or passages of the source.

Legend:
[1] = tested on: ApoE secretion by THP-1 cells; experiment: Secretion of ApoE by THP-1 cells, ApoE determined by ELISA; assay type: cell-based, human; details: for Change in Apo E production: 72 hours incubation
Experimental: The activities of the compounds can be determined an in vitro assay which comprises testing the effects of FXR and LXRα activators on the secretion of ApoE in the THP-1 cell line.
The THP1 cell line was derived from the peripheral blood of a child with acute monocytic leukemia. […] Fresh medium was added to maintain cell density between 2 and 9×10^5 cells/ml. Once a week, new cultures were initiated by inoculating 10 ml of medium with 2×10^6 cells in a 75 cm^2 plate. The plates were kept at 37° C. in a 5% CO2 atmosphere. For screening, cells were seeded in 24-well plates at the density of 2×10^5 cells per well. Phorbol-12-myristat-13-acetate (PMA) was added at 0 and 2.5 nM to initiate THP1 differentiation into adherent macrophage-like cells. Vehicles, reference compounds and test compounds were added simultaneously at concentrations varying from 1 to 50 μM and incubated for 72 hours. The culture medium was then recovered, centrifuged at 300 g for 5 min to remove any unattached cell and stored at −20° C. before analysis.
96 well-microtiter plates were coated by incubating with a 5% gelatine solution from porcine skin, in 50 mM carbonate-bicarbonate buffer, pH9.6 at the concentration of 200 μl/well, for 2 hours at 37° C. The coating solution was carefully removed and the test compound was added (100 μl/well) at the appropriate dilution. Dilutions of a human ApoE standard (ICN BiomedicalsInc, USA) were simultaneously assayed. Test compounds and antibodies were diluted in the following buffer solution: PBS, 1% BSA, 0.1% Tween 20, pH 7.4. Test compounds were incubated for 1 hour at 37° C., and the wells were washed 3 times with 200 μl of buffer solution. One hundred microliters per well of the primary antibody (goat anti-human ApoE IgG) diluted 10000 fold was incubated for 1 hour at 37° C. under continuous shaking. After the third wash, 100 μl/well of the secondary antibody (anti-goat-IgG peroxidase conjugate) diluted 5000 fold was incubated for 1 hour at 37° C. with continuous shaking. Wells were washed 5 times and 100 μl/well of substrate (ortho-phenylenediamine dihydrochloride) was incubated for the appropriate time at room temperature in the dark with continuous shaking. The reaction was stopped by adding 50 μl/well of 3M sulfuric acid and incubating for 1 min at room temperature.

FXR = details: cited from earlier work
LXRα = target: T1, LXRα (Homo sapiens, UniProt Q13133); details: see Janowsky et al. PNAS 1999; cited from earlier work
T1 sequence (Q13133 1-447): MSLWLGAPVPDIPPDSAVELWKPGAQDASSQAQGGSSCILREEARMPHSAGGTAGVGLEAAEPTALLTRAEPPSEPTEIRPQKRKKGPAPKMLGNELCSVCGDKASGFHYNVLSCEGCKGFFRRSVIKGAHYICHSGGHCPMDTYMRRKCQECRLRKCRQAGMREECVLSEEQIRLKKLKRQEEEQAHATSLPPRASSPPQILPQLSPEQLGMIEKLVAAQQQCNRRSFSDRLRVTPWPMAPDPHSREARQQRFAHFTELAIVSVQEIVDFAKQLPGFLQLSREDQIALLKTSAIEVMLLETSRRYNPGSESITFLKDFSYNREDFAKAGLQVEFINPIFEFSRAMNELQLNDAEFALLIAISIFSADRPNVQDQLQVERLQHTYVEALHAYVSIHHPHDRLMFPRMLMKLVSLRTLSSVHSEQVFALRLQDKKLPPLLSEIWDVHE

## C[C@H](CCC(=O)O)[C@H]1CC[C@H]2[C@@H]3[C@H](O)C[C@@H]4C[C@H](O)CC[C@]4(C)[C@H]3CC[C@]12C [Chenodeoxycholic acid, 3α,7α-dihydroxy-5β-cholanic acid]
[1]; compound 50 μM
  Change in Apo E production: +138%
[1]; compound 50 μM, listed as chenodeoxycholic acid
  Change in Apo E production: 138%

## CC(C)=CCC/C(C)=C/CC/C(C)=C/CC/C(C)=C/CO [Geranylgeraniol, All trans-3,7,11,15-tetramethyl-2,6,10,14-hexadecatetraen-1-ol]
[1]; compound 20 μM
  Change in Apo E production: +36%
[1]; compound 20 μM, listed as geranylgeraniol
  Change in Apo E production: 36%
FXR; see Forman et al. Cell 1995
  Interaction with Nuclear receptor: Does not activate

## C[C@H](CCC(=O)O)[C@H]1CC[C@H]2[C@@H]3[C@H](O)C[C@@H]4C[C@H](O)CC[C@]4(C)[C@H]3C[C@H](O)[C@]12C [Cholic acid, 3α,7α,12α-trihydroxy-5β-cholan-24-oic acid]
[1]; compound 50 μM
  Change in Apo E production: +6%
[1]; compound 50 μM, listed as cholic acid
  Change in Apo E production: did not change ApoE secretion
FXR; see Makishima et al., Parks et al., Wang et al. 1999
  Interaction with Nuclear receptor: Does not activate

## CC(C)CC[C@H](O)[C@@H](C)[C@H]1CC[C@H]2[C@@H]3CC=C4C[C@@H](O)CC[C@]4(C)[C@H]3CC[C@]12C [22(S)-hydroxycholesterol, 5-cholestene-3β,22[S]-diol]
LXRα
  Interaction with Nuclear receptor: Less potent activator

## CC(C)CC[C@@H](O)[C@@H](C)[C@H]1CC[C@H]2[C@@H]3CC=C4C[C@@H](O)CC[C@]4(C)[C@H]3CC[C@]12C [22(R)-hydroxycholesterol, 5-cholestene-3β,22[R]-diol]
[1]; submicromolar concentrations
  ApoE secretion at submicromolar concentrations: significant increases in ApoE secretion
LXRα
  Interaction with Nuclear receptor: LXRα activator ^3)
